Source: ChEMBL document CHEMBL4354788, “Synthetic small-molecule RNA ligands: future prospects as therapeutic agents” (Medchemcomm, 2019)
pEC50, pIC50, pKd: −log10 of the molar value. Each block holds one molecule with its values, some of them ahead of it.

Columns and labels:
[1] = Binding affinity to HIV1 TAR RNA; set-up: species or system Human immunodeficiency virus 1
[2] = tested on: Human immunodeficiency virus 1; assay: Antiviral activity against HIV1 infected in human CEM-SS cells assessed as inhibition of virus proliferation; type: functional, organism-based; conditions: Human immunodeficiency virus 1, CEM-SS
[3] = biological target: Rev responsive element (RRE) RNA; assay: Binding affinity to HIV1 RRE RNA assessed as reduction in binding of tritiated RRE RNA to biotinylated Rev protein by high-throughput scintillation proximity assay; type: nucleic-acid assay, Human immunodeficiency virus 1
[4] = tested on: Human immunodeficiency virus 1; assay: Antiviral activity against HIV1 assessed as reduction in viral replication by cell based assay; type: functional, organism-based
[5] = Binding affinity to r(CUG) repeat RNA (unknown origin)
[6] = Binding affinity to r(CUG) repeat RNA (unknown origin) assessed as reduction in r(CUG)-MBNL1 interaction
[7] = Inhibition of miR-96 hairpin RNA precursor (unknown origin)
[8] = Binding affinity to r(CGG)12 repeat RNA (unknown origin) assessed as reduction in r(CGG)12-[…] interaction
[9] = tested on: Human immunodeficiency virus 1; assay: Antiviral activity against HIV1 infected in human MT2 cells assessed as inhibition of virus proliferation at 9 uM relative to control; type: functional; conditions: Human immunodeficiency virus 1, MT2
[10] = tested on: Human immunodeficiency virus 1; assay: Binding affinity to HIV1 TAR RNA assessed as increase in melting temperature
[11] = Binding affinity to Stem loop 3 RNA in HIV1 infected in HEK293T cells assessed as reduction in SL3-Gag interaction by measuring inhibition of RNA incorporation into virions; type: cell-based; conditions: Human immunodeficiency virus 1, HEK-293T
[12] = tested on: Human immunodeficiency virus 1; assay: Antiviral activity against HIV1 NL4-3 infected in human MAGIC-5B cells assessed as inhibition of virus proliferation; type: functional, organism-based; conditions: Human immunodeficiency virus 1, NL4-3
[13] = tested on: Human immunodeficiency virus 1; assay: Antiviral activity against HIV1 NL4-3 infected human TZM-bl cells assessed as reduction in viral replication; type: functional, organism-based; conditions: Human immunodeficiency virus 1, NL4-3, TZM-bl
[14] = tested on: Human immunodeficiency virus 1; assay: Binding affinity to HIV1 TAR RNA in HIV1 NL4-3 infected human TZM-bl cells assessed as inhibition of Tat-mediated activation relative to control; conditions: concentration not given here
[15] = Binding affinity to HCV promoter RNA by NMR-based fragment screening assay; set-up: species or system Hepacivirus hominis

pKd [1]: 5.62
Structure (SMILES): Cc1ccc2c(N)c(C(=O)Nc3cccc(C(F)(F)F)c3)sc2n1
pEC50 [2]: 4.55

pIC50 [3]: 5.43
pEC50 [4]: 5.37
Structure (SMILES): CCN(CC)CCOc1ccc(/C(=C(/Cl)c2ccccc2)c2ccccc2)cc1 [ENCLOMIPHENE]

pKd [5]: 7.15
Structure (SMILES): Nc1cccc(-c2nc3cc(-c4ccc5[nH]c(-c6cccc(N)c6)nc5c4)ccc3[nH]2)c1

pIC50 [6]: 4.82
pKd [5]: 8.28
Structure (SMILES): COc1ccc2nc3cc(Cl)ccc3c(NCCCCNc3nc(N)nc(N)n3)c2c1

pEC50 ([4]; read-out: EC50): 6.08
Structure (SMILES): CN(C)CCOc1cc2c(c3ccccc13)-c1ccccc1C2=O

pIC50 [7]: 7.30
Structure (SMILES): CCCN(CC(=O)N(CCC)CC(=O)N(CC(N)=O)Cc1cn(CCCNC(=O)CCCOc2c(C(C)(C)C)cc(-c3nc4cc(N5CCN(C)CC5)ccc4[nH]3)cc2C(C)(C)C)nn1)C(=O)CCCOc1cccc(-c2nc3ccc(-c4nc5ccc(N6CCN(C)CC6)cc5[nH]4)cc3[nH]2)c1

Structure (SMILES): Cc1c2cc[n+](CCN3CCCCC3)cc2c(C)c2c1[nH]c1ccc(O)cc12
pIC50 [8]: 4.92

ΔTm [10]: < 10 °C
Structure (SMILES): NC[C@H]1O[C@@H](O[C@H]2[C@H](O[C@@H]3O[C@H](Cn4cc(-c5ccc(-c6cn(C[C@H]7O[C@@H](O[C@@H]8[C@@H](O)[C@H](N)C[C@H](N)[C@H]8O[C@@H]8O[C@H](CN)[C@@H](O)[C@H](O)[C@H]8N)[C@H](O)[C@@H]7O[C@@H]7O[C@H](CN)[C@@H](O)[C@H](O)[C@H]7N)nn6)cc5)nn4)[C@@H](O[C@@H]4O[C@H](CN)[C@@H](O)[C@H](O)[C@H]4N)[C@H]3O)[C@@H](O)[C@H](N)C[C@@H]2N)[C@H](N)[C@@H](O)[C@@H]1O
inhibition at 9 µM [9]: 70%

pIC50 [11]: 5.35
Structure (SMILES): CN1CC/C(=N\c2ccc(C(=O)Nc3ccc(N=c4ccn(C)cc4)cc3)cc2)c2cc([N+](=O)[O-])ccc21

pKd [1]: 4.76
Structure (SMILES): CC(=O)Nc1nc(-c2cccc(NC(=O)[C@H](N)Cc3c[nH]cn3)c2)cs1
pIC50 [12]: 6.39

pIC50 [13]: 4.64
inhibition [14]: 81%
pKd [1]: 5.87
Structure (SMILES): CCN[C@@H]1C[C@H](N)[C@@H](O[C@H]2OC(CN)=CC[C@H]2N)[C@H](O)[C@H]1O[C@H]1OC[C@](C)(O)[C@H](NC)[C@H]1O [NETILMICIN]

pKd [15]: 4.30
Structure (SMILES): COc1cc2nc(N3CCNCC3)nc(N)c2cc1OC [AMINODIMETHOXYQUINAZOLINYLPIPERAZINE]
